Data reported in patent US9260439B2, “Dihydropyrrolopyrimidine derivatives” (PFIZER INC., priority 2014, dated 2016).
Where a name gives a salt, the structure may show the parent alone.

The compounds below were run against truncated PI3Kα (p110α/iSH2 p85α) (Homo sapiens (Human), UniProt P42336) (assay: PI3KA_Act fluorescence polarization kinase assay (Ki)). Details: 1 mM ATP.
Chain of truncated PI3Kα (p110α/iSH2 p85α) (P42336 whole entry, the tested form may be a part): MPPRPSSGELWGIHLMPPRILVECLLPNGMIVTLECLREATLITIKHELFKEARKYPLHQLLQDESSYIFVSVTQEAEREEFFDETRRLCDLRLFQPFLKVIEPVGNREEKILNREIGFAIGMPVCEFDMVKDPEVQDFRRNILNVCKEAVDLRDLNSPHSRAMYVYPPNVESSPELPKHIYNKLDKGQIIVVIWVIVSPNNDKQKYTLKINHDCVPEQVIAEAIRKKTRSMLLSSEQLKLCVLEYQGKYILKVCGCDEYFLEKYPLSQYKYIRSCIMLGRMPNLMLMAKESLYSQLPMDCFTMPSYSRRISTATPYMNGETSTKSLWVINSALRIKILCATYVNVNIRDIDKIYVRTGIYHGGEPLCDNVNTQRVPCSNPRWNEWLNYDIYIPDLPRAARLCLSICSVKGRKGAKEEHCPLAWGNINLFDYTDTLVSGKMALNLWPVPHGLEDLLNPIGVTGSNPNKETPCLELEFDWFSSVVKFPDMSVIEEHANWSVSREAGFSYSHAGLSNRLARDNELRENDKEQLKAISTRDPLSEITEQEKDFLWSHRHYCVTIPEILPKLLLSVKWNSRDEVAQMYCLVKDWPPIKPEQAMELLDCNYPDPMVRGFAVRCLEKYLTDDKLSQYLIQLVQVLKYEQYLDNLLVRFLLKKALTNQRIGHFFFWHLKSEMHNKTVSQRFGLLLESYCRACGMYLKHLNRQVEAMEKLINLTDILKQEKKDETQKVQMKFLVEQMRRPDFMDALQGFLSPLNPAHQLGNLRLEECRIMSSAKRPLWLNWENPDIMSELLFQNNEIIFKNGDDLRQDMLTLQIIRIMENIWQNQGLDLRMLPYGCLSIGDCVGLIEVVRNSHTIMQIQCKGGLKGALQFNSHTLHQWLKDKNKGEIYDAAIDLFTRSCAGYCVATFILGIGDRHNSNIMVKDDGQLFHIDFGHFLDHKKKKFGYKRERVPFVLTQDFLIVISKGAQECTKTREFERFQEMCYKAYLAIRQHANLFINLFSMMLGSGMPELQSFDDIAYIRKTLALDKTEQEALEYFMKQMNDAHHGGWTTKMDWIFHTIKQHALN
Type: biochemical
Text: 2) p110α-iSH2 p85α Complex (Full Length p110α and p85α iSH2)(“PI3KA_Act”)
Genes encoding for full length p110α and p85α nSH-iSH2=niSH2 (p85a aminoacids 322-600) subunits of PI3Kα complex were subcloned from existing constructs into pFASTBAC Dual vector (Life Technologies, Carlsbad, Calif.) using standard cloning procedures. Gene encoding p110α subunit was subcloned into polyhedrine promoter while gene encoding p85α niSH2 domains was subcloned into p10 promoter. Additionally, Human Rhinovirus 3C Protease (“HRV 3C”) site was introduced between nSH2 and iSH2, replacing aminoacids 431-438 of p85α with […] HRV 3C recognition sequence, using standard QuickChange mutagenesis protocol (Agilent Technologies, CA). Recombinant baculovirus was generated using Bac-to-Bac protocol (Life Technologies, Carlsbad, Calif.). Large scale expression was conducted in Sf21 (Life Technologies, Carlsbad, Calif.) cells at a multiplicity of infection (“MOI”)=1 for 48 hours. Cells were lyzed in 50 mM Tris pH 8.0, 250 mM NaCl, 5% glycerol, 0.25 mM TCEP, and 20 mM imidazole. The p110α-niSH2 p85α complex was purified from clarified supernatant using Immobilized Metalo Affinity Chromatography (“IMAC”). The protein was eluted from the column using 50 mM Tris pH 8.0, 200 mM NaCl, 0.25 mM TCEP, and 200 mM imidazole. Following elution p110α-niSH2 p85α complex was dialyzed against 4 liters of 50 mM Tris pH 8.0, 200 mM NaCl, 0.25 mM TCEP, and 40 mM imidazole in the presence of PreScission Protease (1:70 molar ratio of Protease to Protein) and TEV protease (1:40 molar ratio protease to protein) for 16 hours at 4° C. The protein was further purified using reverse IMAC to remove cleaved histidine tag and contaminants captured during initial IMAC purification. The mixture of p110α-iSH2 p85α complex and cleaved nSH2 was recovered in reverse IMAC 40 mM imidazole flow through and 60 mM imidazole wash fractions. Those fractions were pulled together and loaded on Superdex 200 26/60 SEC column equilibrated in 25 mM Tris, pH 8.0, 100 mM NaCl, 2% glycerol, and 2 mM TCEP. Following SEC, chromatography peak fractions containing p110α-iSH2 p85α complex were pulled and concentrated to 4.3 mg/mL. Purity and integrity of the complex was confirmed using LCMS, analytical SEC and SDS-PAGE (sodium dodecyl sulfate polyacrylamide gel electrophoresis) analysis.
The biochemical assays of kinase activity of full-length PI3Kα (full-length p110α/p85a) or truncated PI3Kα (p110α/iSH2 p85a) were conducted using a fluorescence polarization format similar to the procedure of Yuan J., et al., (2011) “PF-04691502, a Potent and Selective Oral Inhibitor of PI3K and mTOR Kinases with Antitumor Activity”, Mol Cancer Ther. 10, 2189-2199. The enzymatic reactions were conducted in 50 μL volumes in 96-well plates. The reactions contained human recombinant PI3Kα (2 nM full-length p110α/p85α or 0.5 nM p110α/iSH2 p85) and 30 μM phosphatidylinositol 4,5-bisphosphate (“PIP2”) (Cayman Chemical Company, Ann Arbor, Mich.) and were sonicated for 1 minute prior to adding PI3Kα enzyme (PI3KA_Act or PI3KA_FL), DMSO or test compound (12-point 3-fold serial dilution, 3 μM top dose, 2° A) DMSO final concentration), 5 mM MgCl2, 50 mM HEPES pH 7.4, 150 mM NaCl, 1 mM DTT ((2S,3S)-1,4-bis(sulfanyl)butane-2,3-diol), and 0.05% 3-[(3-cholamidopropyl)dimethylammonio]-1-propanesulfonate (“CHAPS”). […] The reactions were incubated for 30 min at room temperature, stopped with EDTA pH 8 (10 mM final concentration). In a detection plate, 15 μL of detector/probe mixture, containing 480 nM GST-Grp1 PH domain protein (University of Dundee, Dundee, UK) and 12 nM carboxytetramethylrhodamine (“TAMRA”)-tagged fluorescent phosphatidylinositol (3,4,5)-triphosphate (“PIP3”) (Echelon Biosciences, Inc., Salt Lake City, Utah) in assay buffer, was mixed with 15 μL of kinase reaction mixture. The plate was shaken for 30 minutes and fluorescence polarization values were measured on an LJL Analyst HT plate reader (Molecular Devices, Sunnyvale, Calif.). […]
For `C[C@]1(N2CCc3c(-c4cnc(N)nc4)nc(N4CCOCC4)nc32)CCN(C(=O)c2ncc[nH]2)C1` [Example 388, {(3S)-3-[4-(2-aminopyrimidin-5-yl)-2-(morpholin-4-yl)-5,6-dihydro-7H-pyrrolo[2,3-d]pyrimidin-7-yl]-3-methylpyrrolidin-1-yl}(1H-imidazol-2-yl)methanone], the “PI3KA_Act Ki” value was less than 0.018 nM. `CC(C)(N)C(=O)N1CC(C)(N2CCc3c(-c4cnc(N)nc4)nc(N4CCOCC4)nc32)C1` [Example 243, 2-amino-1-{3-[4-(2-aminopyrimidin-5-yl)-2-(morpholin-4-yl)-5,6-dihydro-7H-pyrrolo[2,3-d]pyrimidin-7-yl]-3-methylazetidin-1-yl}-2-methylpropan-1-one] was tested, and the “PI3KA_Act Ki” value was 0.165 nM. In the case of `C[C@H]1COCCN1c1nc(-c2cnc(N)nc2)c2c(n1)N([C@H]1CCN(C(=O)OC3COC3)C1)CC2` [Example 156], the “PI3KA_Act Ki” value is reported as 0.088 nM. With `C[C@]1(N2CCc3c(-c4cnc(N)nc4)nc(N4CCOCC4)nc32)CCN(C(=O)[C@H]2C[C@@H]2F)C1` [Example 332, {(3S)-3-[4-(2-aminopyrimidin-5-yl)-2-(morpholin-4-yl)-5,6-dihydro-7H-pyrrolo[2,3-d]pyrimidin-7-yl]-3-methylpyrrolidin-1-yl}[(1R,2S)-2-fluorocyclopropyl] methanone] the “PI3KA_Act Ki” value was less than 0.018 nM. With `CC[C@@H](N)C(=O)N1CC[C@](C)(N2CCc3c(-c4cnc(N)nc4)nc(N4CCOC[C@@H]4C)nc32)C1.Cl` [Example 478, (2R)-2-amino-1-[(3S)-3-{4-(2-aminopyrimidin-5-yl)-2-[(3S)-3-methylmorpholin-4-yl]-5,6-dihydro-7H-pyrrolo[2,3-d]pyrimidin-7-yl}-3-methylpyrrolidin-1-yl]butan-1-one hydrochloride] the “PI3KA_Act Ki” value was 0.026 nM. `CNC(=O)COC(=O)N1CC(N2CCc3c(-c4cnc(N)nc4)nc(N4CCOC[C@@H]4C)nc32)C1` [Example 143] was tested, and the “PI3KA_Act Ki” value was 0.262 nM. `CP(C)(=O)N1CC[C@@H](N2CCc3c(-c4cnc(N)nc4)nc(N4CCOCC4)nc32)C1` [Example 180] was tested, and the “PI3KA_Act Ki” value was 1.759 nM. In the case of `CP(C)(=O)N1CC[C@H](N2CCc3c(-c4cnc(N)nc4)nc(N4CCOCC4)nc32)C1` [Example 181], the “PI3KA_Act Ki” value is reported as 0.296 nM. In the case of `CN[C@H]1C[C@@H](N2CCc3c(-c4cnc(N)nc4)nc(N4CCOC[C@@H]4C)nc32)C1.Cl` [Example 444, 5-{7-[cis-3-(methylamino)cyclobutyl]-2-[(3S)-3-methylmorpholin-4-yl]-6,7-dihydro-5H-pyrrolo[2,3-d]pyrimidin-4-yl}pyrimidin-2-amine hydrochloride], the “PI3KA_Act Ki” value is reported as 2.125 nM. `CC(C)C(=O)NCC(=O)N1CC(N2CCc3c(-c4cnc(N)nc4)nc(N4CCOCC4)nc32)C1` [Example 218] was tested, and the “PI3KA_Act Ki” value was 0.751 nM. `C[C@H]1COCCN1c1nc(-c2cnc(N)nc2)c2c(n1)N(C1CN(S(=O)(=O)c3cn(C)cn3)C1)CC2` [Example 154] was tested, and the “PI3KA_Act Ki” value was 0.286 nM. In the case of `CC(C)(C)NC(=O)N1CC[C@](C)(N2CCc3c(-c4cnc(N)nc4)nc(N4CCOCC4)nc32)C1` [Example 397, (3S)-3-[4-(2-aminopyrimidin-5-yl)-2-(morpholin-4-yl)-5,6-dihydro-7H-pyrrolo[2,3-d]pyrimidin-7-yl]-N-tert-butyl-3-methylpyrrolidine-1-carboxamide], the “PI3KA_Act Ki” value is reported as 0.101 nM. With `C[C@@H](O)COC(=O)N1CC(N2CCc3c(-c4cnc(N)nc4)nc(N4CCOCC4)nc32)C1` [Example 185] the “PI3KA_Act Ki” value was 0.182 nM. `Nc1ncc(-c2nc(N3CCOCC3)nc3c2CCN3C2CN(S(=O)(=O)CC3CC3)C2)cn1` [Example 169] was tested, and the “PI3KA_Act Ki” value was 0.129 nM. For `C[C@H]1COCCN1c1nc(-c2cnc(N)nc2)c2c(n1)N([C@@]1(C)CCN(C3CCNC3=O)C1)CC2` (single isomer, unassigned) [Example 514], the “PI3KA_Act Ki” value was 0.068 nM. For `CC1(O)CN(C(=O)N2CC[C@](C)(N3CCc4c(-c5cnc(N)nc5)nc(N5CCOCC5)nc43)C2)C1` [Example 369, {(3S)-3-[4-(2-aminopyrimidin-5-yl)-2-(morpholin-4-yl)-5,6-dihydro-7H-pyrrolo[2,3-d]pyrimidin-7-yl]-3-methylpyrrolidin-1-yl}(3-hydroxy-3-methylazetidin-1-yl)methanone], the “PI3KA_Act Ki” value was less than 0.018 nM. For `CNS(=O)(=O)N1CC[C@H](N2CCc3c(-c4cnc(N)nc4)nc(N4CCOC[C@H]4C)nc32)C1` [Example 144], the “PI3KA_Act Ki” value was 3.251 nM. `[2H]C1([2H])CN(c2nc(-c3cnc(N)nc3)c3c(n2)N([C@@]2(C)CCN(C(=O)C(C)(C)N)C2)CC3)CC([2H])([2H])O1` [Example 233] was tested, and the Ki was less than 0.018 nM. For `CC(=O)N1CC[C@@](C)(N2CCc3c(-c4cnc(N)nc4)nc(N4CCOC[C@@H]4C)nc32)C1` [Example 470, 1-[(3R)-3-{4-(2-aminopyrimidin-5-yl)-2-[(3S)-3-methylmorpholin-4-yl]-5,6-dihydro-7H-pyrrolo[2,3-d]pyrimidin-7-yl}-3-methylpyrrolidin-1-yl]ethanone], the “PI3KA_Act Ki” value was 0.070 nM. For `CCC(C)(O)C(=O)N1CC[C@](C)(N2CCc3c(-c4cnc(N)nc4)nc(N4CCOCC4)nc32)C1` (single isomer, unassigned) [Example 273], the “PI3KA_Act Ki” value was 0.087 nM. Compound `C[C@H]1COCCN1c1nc(-c2cnc(N)nc2)c2c(n1)N([C@@H]1[C@H]3CN[C@@H]1C3)CC2` [Example 526, 5-{7-[(1R,4R,5R)-2-azabicyclo[2.1.1]hex-5-yl]-2-[(3S)-3-methylmorpholin-4-yl]-6,7-dihydro-5H-pyrrolo[2,3-d]pyrimidin-4-yl}pyrimidin-2-amine hydrochloride] has a Ki of 9.43 nM. `C[C@H]1COCCN1c1nc(-c2cnc(N)nc2)c2c(n1)N([C@@]1(C)CCN(C(=O)C3(F)CNC3)C1)CC2` [Example 496, [(3S)-3-{4-(2-aminopyrimidin-5-yl)-2-[(3S)-3-methylmorpholin-4-yl]-5,6-dihydro-7H-pyrrolo[2,3-d]pyrimidin-7-yl}-3-methylpyrrolidin-1-yl](3-fluoroazetidin-3-yl)methanone hydrochloride] showed a Ki of less than 0.018 nM. For `C[C@H](C(=O)N1CC[C@](C)(N2CCc3c(-c4cnc(N)nc4)nc(N4CCOCC4)nc32)C1)N(C)C` [Example 301, (2R)-1-{(3S)-3-[4-(2-aminopyrimidin-5-yl)-2-(morpholin-4-yl)-5,6-dihydro-7H-pyrrolo[2,3-d]pyrimidin-7-yl]-3-methylpyrrolidin-1-yl}-2-(dimethylamino) propan-1-one], the “PI3KA_Act Ki” value was 0.073 nM. With `CS(=O)(=O)N1C[C@H]2C[C@@]2(N2CCc3c(-c4cnc(N)nc4)nc(N4CCOCC4)nc32)C1` [Example 436, 5-{7-[(1S,5R)-3-(methylsulfonyl)-3-azabicyclo[3.1.0]hex-1-yl]-2-(morpholin-4-yl)-6,7-dihydro-5H-pyrrolo[2,3-d]pyrimidin-4-yl}pyrimidin-2-amine] the “PI3KA_Act Ki” value was 0.189 nM.
